# In patent US10323022B2, “Pyrrolidinyl urea, pyrrolidinyl thiourea and pyrrolidinyl guanidine compounds as TrkA kinase inhibitors” (Array BioPharma Inc., priority 2011, dated 2019):
# Where a name gives a salt, the structure may show the parent alone.
# Target: TrkA (Homo sapiens (Human), UniProt P04629)
# Assay: TrkA Omnia Assay
# Assay type: biochemical
# Details: averaged IC50; 20 nM enzyme, 500 μM ATP, 10 μM peptide substrate
# Description: Trk enzymatic selectivity was assessed using Omnia™ Kinase Assay reagents from Invitrogen Corp. Enzyme (TrkA from Invitrogen Corp.) and test compound (various concentrations) were incubated for 10 minutes at ambient temperature in a 384-well white polypropylene plate (Nunc catalog#267462). Omnia Tyr Peptide #4, as well as ATP, were then added to the plate. Final concentrations were as follows: 20 nM enzyme, 500 μM of ATP, 10 μM peptide substrate. The assay buffer consisted of 25 mM MOPS pH 7.5, 0.005% (v/v) Triton X-100 and 5 mM MgCl2. The production of phosphorylated peptide was monitored continuously for 70 minutes using a Molecular Devices FlexStation II^384 microplate reader (excitation=360 nm; emission=485 nm). Initial rates were calculated from the progress curves. IC50 values were calculated from these rates using either a 4 or 5-parameter logistic curve fit.
# Sequence of TrkA (P04629 33-796): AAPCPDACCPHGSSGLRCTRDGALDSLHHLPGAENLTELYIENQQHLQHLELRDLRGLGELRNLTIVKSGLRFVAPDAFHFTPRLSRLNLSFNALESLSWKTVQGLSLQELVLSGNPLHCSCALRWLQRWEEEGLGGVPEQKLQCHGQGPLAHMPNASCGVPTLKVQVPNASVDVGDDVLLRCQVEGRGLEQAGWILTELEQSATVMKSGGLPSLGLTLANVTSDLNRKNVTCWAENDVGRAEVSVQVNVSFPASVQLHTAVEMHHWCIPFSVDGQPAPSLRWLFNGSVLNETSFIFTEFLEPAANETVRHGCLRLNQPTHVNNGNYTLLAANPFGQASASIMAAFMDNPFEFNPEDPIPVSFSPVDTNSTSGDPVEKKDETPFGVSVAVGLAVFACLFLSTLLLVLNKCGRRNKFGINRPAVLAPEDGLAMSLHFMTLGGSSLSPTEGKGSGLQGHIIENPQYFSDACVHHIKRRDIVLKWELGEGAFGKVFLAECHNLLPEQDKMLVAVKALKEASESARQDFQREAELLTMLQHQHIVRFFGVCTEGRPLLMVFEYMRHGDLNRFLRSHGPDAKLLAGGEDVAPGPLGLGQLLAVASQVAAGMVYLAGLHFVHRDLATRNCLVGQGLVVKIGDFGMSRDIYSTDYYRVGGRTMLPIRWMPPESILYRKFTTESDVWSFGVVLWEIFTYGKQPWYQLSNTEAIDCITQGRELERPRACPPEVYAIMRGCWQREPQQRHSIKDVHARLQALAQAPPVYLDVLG
row,SMILES,IC50 [nM]
1,"COCCN1C[C@@H](NC(=O)Nc2c(C)c([C@H]3C[C@@H](O)C3)nn2-c2ccccc2)[C@H](c2cc(F)cc(F)c2)C1 [Example 456, 1-((3S,4R)-4-(3,5-difluorophenyl)-1-(2-methoxyethyl)pyrrolidin-3-yl)-3-(3-(cis-3-hydroxycyclobutyl)-4-methyl-1-phenyl-1H-pyrazol-5-yl)urea]",< 100
2,"CCOc1nn(-c2ccccc2)c(NC(=O)N[C@@H]2CN(c3ccccc3)C[C@H]2c2ccc(F)c(F)c2)c1C [Example 232, 1-((3S,4R)-4-(3,4-difluorophenyl)-1-phenylpyrrolidin-3-yl)-3-(3-ethoxy-4-methyl-1-phenyl-1H-pyrazol-5-yl)urea]",100 to 1000
3,"COCCN1C[C@@H](NC(=O)Nc2c(Br)c(-c3ccccc3)nn2-c2ccccc2)[C@H](c2cncc(F)c2)C1 (relative stereo) [Example 435, 1-(4-bromo-1,3-diphenyl-1H-pyrazol-5-yl)-3-(trans-4-(5-fluoropyridin-3-yl)-1-(2-methoxyethyl)pyrrolidin-3-yl)urea]",< 100
4,"COCCN1C[C@@H](NC(=O)Nc2c(C)c(OCC(F)(F)F)nn2-c2ccccc2)[C@H](c2ccc(F)cc2)C1 [Example 476, 1-((3S,4R)-4-(4-fluorophenyl)-1-(2-methoxyethyl)pyrrolidin-3-yl)-3-(4-methyl-1-phenyl-3-(2,2,2-trifluoroethoxy)-1H-pyrazol-5-yl)urea]",< 100
5,"COCCN1C[C@@H](NC(=O)Nc2ccnn2C)[C@H](c2ccccc2)C1 (relative stereo) [Example 20, 1-(trans-1-(2-methoxyethyl)-4-phenylpyrrolidin-3-yl)-3-(1-methyl-1H-pyrazol-5-yl)urea]",1000 to 10000
6,"COCCN1C[C@@H](NC(=O)Nc2c(Cl)c(C3CCN(S(=O)(=O)C(F)(F)F)CC3)nn2-c2ccccc2)[C@H](c2ccc(F)c(F)c2)C1 [Example 594, 1-(4-chloro-1-phenyl-3-(1-(trifluoromethylsulfonyl)piperidin-4-yl)-1H-pyrazol-5-yl)-3-((3S,4R)-4-(3,4-difluorophenyl)-1-(2-methoxyethyl)pyrrolidin-3-yl)urea hydrochloride]",< 100
7,"COCCN1C[C@@H](NC(=O)Nc2c(Br)c([C@H]3CCCN3C(=O)OC(C)(C)C)nn2-c2ccccc2)[C@H](c2ccc(F)c(F)c2)C1 [Example 578, (R)-tert-butyl 2-(4-bromo-5-(3-((3S,4R)-4-(3,4-difluorophenyl)-1-(2-methoxyethyl)pyrrolidin-3-yl)ureido)-1-phenyl-1H-pyrazol-3-yl)pyrrolidine-1-carboxylate]",100 to 1000
8,"CCOc1nn(-c2ccccc2)c(NC(=O)N[C@@H]2CN(c3ccnc(OC)c3)C[C@H]2c2ccccc2)c1C [Example 241, 1-(3-ethoxy-4-methyl-1-phenyl-1H-pyrazol-5-yl)-3-((3S,4R)-1-(2-methoxypyridin-4-yl)-4-phenylpyrrolidin-3-yl)urea]",100 to 1000
9,"CCOc1nn(-c2ccccc2)c(NC(=O)N[C@@H]2CN(CCOC)C[C@H]2c2cccc(C(F)(F)F)c2)c1C (relative stereo) [Example 335, 1-(3-ethoxy-4-methyl-1-phenyl-1H-pyrazol-5-yl)-3-(trans-1-(2-methoxyethyl)-4-(3-(trifluoromethyl)phenyl)pyrrolidin-3-yl)urea]",< 100
10,"CCOc1nn(-c2ccccc2)c(NC(=O)N[C@@H]2CN(C(COC)COC)C[C@H]2c2ccc(F)c(F)c2)c1C [Example 254, 1-((3S,4R)-4-(3,4-difluorophenyl)-1-(1,3-dimethoxypropan-2-yl)pyrrolidin-3-yl)-3-(3-ethoxy-4-methyl-1-phenyl-1H-pyrazol-5-yl)urea]",< 100
11,"O=C(Nc1c2c(nn1-c1ccccc1)CCC2)N[C@@H]1CN(CC(F)(F)F)C[C@H]1c1ccccc1F (relative stereo) [Example 214, 1-((trans)-4-(2-fluorophenyl)-1-(2,2,2-trifluoroethyl)pyrrolidin-3-yl)-3-(2-phenyl-2,4,5,6-tetrahydrocyclopenta[c]pyrazol-3-yl)urea]",< 100
12,"COCCN1C[C@@H](NC(=O)Nc2c3c(nn2-c2ccccc2)CCCC3)[C@H](c2ccccc2)C1 (relative stereo) [Example 26, 1-(trans-1-(2-methoxyethyl)-4-phenylpyrrolidin-3-yl)-3-(2-phenyl-4,5,6,7-tetrahydro-2H-indazol-3-yl)urea]",< 100
13,"COCC(C(=O)O)N1C[C@@H](NC(=O)Nc2c3c(nn2-c2ccccc2)CCC3)[C@H](c2ccc(F)c(F)c2)C1 (stereo partly drawn) [Example 262, 2-((3R,4S)-3-(3,4-difluorophenyl)-4-(3-(2-phenyl-2,4,5,6-tetrahydrocyclopenta[c]pyrazol-3-yl)ureido)pyrrolidin-1-yl)-3-methoxypropanoic acid hydrochloride]",1000 to 10000
14,"COCCN1C[C@@H](NC(=O)Nc2c(Br)c(COC3CCN(S(C)(=O)=O)CC3)nn2-c2ccccc2)[C@H](c2ccc(F)c(F)c2)C1 [Example 599, 1-(4-bromo-3-((1-(methylsulfonyl)piperidin-4-yloxy)methyl)-1-phenyl-1H-pyrazol-5-yl)-3-((3S,4R)-4-(3,4-difluorophenyl)-1-(2-methoxyethyl)pyrrolidin-3-yl)urea]",< 100
15,"CCOc1nn(-c2ccccc2)c(NC(=O)N[C@@H]2CN(c3c[nH]nc3C(F)(F)F)C[C@H]2c2ccc(F)c(F)c2)c1C [Example 220, 1-((3S,4R)-4-(3,4-difluorophenyl)-1-(3-(trifluoromethyl)-1H-pyrazol-4-yl)pyrrolidin-3-yl)-3-(3-ethoxy-4-methyl-1-phenyl-1H-pyrazol-5-yl)urea]",100 to 1000
16,"CCOc1nn(-c2ccccc2)c(NC(=O)N[C@@H]2CN(c3c[nH]nc3C)C[C@H]2c2ccc(F)c(F)c2)c1C [Example 219, 1-((3S,4R)-4-(3,4-difluorophenyl)-1-(3-methyl-1H-pyrazol-4-yl)pyrrolidin-3-yl)-3-(3-ethoxy-4-methyl-1-phenyl-1H-pyrazol-5-yl)urea]",< 100

# Continued, values first:
row,IC50 [nM],SMILES
1,< 100,"COCCN1C[C@@H](NC(=O)Nc2cc(-c3ccccc3)nn2C)[C@H](c2ccc(F)c(F)c2)C1 [Example 93, 1-((3S,4R)-4-(3,4-difluoro-phenyl)-1-(2-methoxyethyl)pyrrolidin-3-yl)-3-(1-methyl-3-phenyl-1H-pyrazol-5-yl)urea]"
2,< 100,"COCCN1C[C@@H](NC(=O)Nc2c(C#N)c(C)nn2-c2ccccc2)[C@H](c2ccc(F)c(F)c2)C1 [Example 66, 1-(4-cyano-3-methyl-1-phenyl-1H-pyrazol-5-yl)-3-((3S,4R)-4-(3,4-difluorophenyl)-1-(2-methoxyethyl)pyrrolidin-3-yl)urea]"
3,< 100,"COCCN1C[C@@H](NC(=O)Nc2c(C#N)c(C(F)(F)F)nn2-c2ccccc2)[C@H](c2ccc(F)c(F)c2)C1 [Example 617, 1-(4-cyano-1-phenyl-3-(trifluoromethyl)-1H-pyrazol-5-yl)-3-((3S,4R)-4-(3,4-difluorophenyl)-1-(2-methoxyethyl)pyrrolidin-3-yl)urea]"
4,100 to 1000,"COCCN1C[C@@H](NC(=O)Nc2c(-c3ccccc3)nn(C(C)C)c2C)[C@H](c2ccc(F)c(F)c2)C1 [Example 641, 1-((3S,4R)-4-(3,4-difluorophenyl)-1-(2-methoxyethyl)pyrrolidin-3-yl)-3-(1-isopropyl-5-methyl-3-phenyl-1H-pyrazol-4-yl)urea]"
5,< 100,"COCCN1C[C@@H](NC(=O)Nc2c(C)c(OC[C@H](O)CO)nn2-c2ccccc2)[C@H](c2ccc(F)c(F)c2)C1 [Example 176, 1-((3S,4R)-4-(3,4-difluorophenyl)-1-(2-methoxyethyl)pyrrolidin-3-yl)-3-(3-((R)-2,3-dihydroxypropoxy)-4-methyl-1-phenyl-1H-pyrazol-5-yl)urea]"
6,< 100,"COCCN1C[C@@H](NC(=O)Nc2c(C)c(C[C@@H](C)O)nn2-c2ccccc2)[C@H](c2ccc(F)c(F)c2)C1 [Example 290, 1-((3S,4R)-4-(3,4-difluorophenyl)-1-(2-methoxyethyl)pyrrolidin-3-yl)-3-(3-((R)-2-hydroxypropyl)-4-methyl-1-phenyl-1H-pyrazol-5-yl)urea]"
7,< 100,"COCCN1C[C@@H](NC(=O)Nc2c(F)c(-c3cnn(C)c3)nn2-c2ccccc2)[C@H](c2ccc(F)c(F)c2)C1 [Example 438, 1-((3S,4R)-4-(3,4-difluorophenyl)-1-(2-methoxyethyl)pyrrolidin-3-yl)-3-(4-fluoro-1′-methyl-1-phenyl-1H,1′H-[3,4′-bipyrazol]-5-yl)urea]"
8,< 100,"CCn1cc(-c2nn(-c3ccccc3)c(NC(=O)N[C@@H]3CN(CCOC)C[C@H]3c3ccc(F)c(F)c3)c2C)cn1 [Example 523, 1-((3S,4R)-4-(3,4-difluorophenyl)-1-(2-methoxyethyl)pyrrolidin-3-yl)-3-(1′-ethyl-4-methyl-1-phenyl-1H, 1′H-[3,4′-bipyrazol]-5-yl)urea]"
9,< 100,"COCCN1C[C@@H](NC(=O)Nc2c(C)c(OC[C@@H](O)CO)nn2-c2ccccc2)[C@H](c2ccc(F)c(F)c2)C1 [Example 177, 1-((3S,4R)-4-(3,4-difluorophenyl)-1-(2-methoxyethyl)pyrrolidin-3-yl)-3-(3-((S)-2,3-dihydroxypropoxy)-4-methyl-1-phenyl-1H-pyrazol-5-yl)urea]"
10,< 100,"CCOc1nn(-c2ccccc2)c(NC(=O)N[C@@H]2CN(CCOC)C[C@H]2c2ccc(F)c(F)c2)c1C [Example 135, 1-((3S,4R)-4-(3,4-difluorophenyl)-1-(2-methoxyethyl)pyrrolidin-3-yl)-3-(3-ethoxy-4-methyl-1-phenyl-1H-pyrazol-5-yl)urea]"
